Laboratory results taken from PMC7125863 (Bioorganic & Medicinal Chemistry, 2013).

Assays:
HIV-1 RT K103N/Y181C = HIV-1 RT K103N/Y181C (Human immunodeficiency virus type 1 group M subtype B, UniProt P04585, K690N/Y768C); experiment: biochemical
[1] = test system: human cytomegalovirus (HCMV) strain AD-169; experiment: Anti-HCMV assay, strain AD169; format: cell-based; details: in parentheses
[2] = test system: human cytomegalovirus (HCMV) strain Davis; experiment: Anti-HCMV assay, strain Davis; format: cell-based; details: in parentheses
in vitro = details: human
[3] = molecular target: wild-type HIV-1 reverse transcriptase (Human immunodeficiency virus type 1 group M subtype B, UniProt P04585); experiment: RT enzyme assay, wild-type RT; format: biochemical
HIV-1 RT K103N = HIV-1 RT K103N (Human immunodeficiency virus type 1 group M subtype B, UniProt P04585, K690N); experiment: biochemical
HIV-1 (IIIB) wild type = experiment: Anti-HIV assay in MT-4 cell cultures; details: MT-4 cells

SMILES	SI [1]	SI [2]	CC50 (in vitro)	other results
Cc1cc(C)cc(Cn2c(=O)ccn(C/C=C/c3ccccc3)c2=O)c1 [Compound 30, 1-Cinnamyl-3-(3,5-dimethylbenzyl)uracil]				Ki (HIV-1 RT K103N/Y181C): > 100 µM
Cc1cc(Br)cc(Cn2c(=O)ccn(C/C=C/c3ccccc3)c2=O)c1 [Compound 34, 3-(3-Bromo-5-methylbenzyl)-1-cinnamyluracil]	6	5	≥ 100 µM	
Cc1cccc(OCCn2ccc(=O)n(Cc3ccccc3)c2=O)c1 [Compound 6, 3-Benzyl-1-[2-(3-methylphenoxy)ethyl]uracil]				Ki [3]: > 100 µM
O=c1ccn(C/C=C/c2ccccc2)c(=O)n1Cc1cccc2ccccc12 [Compound 35, 1-Cinnamyl-3-(1-naphthylmethyl)uracil]	7	16	≥ 100 µM	
Cc1ccc(OCCn2ccc(=O)n(Cc3cc(C)cc(C)c3)c2=O)cc1 [Compound 19, 1-[2-(4-Methylphenoxy)ethyl]-3-(3,5-dimethylbenzyl)uracil]				Ki (HIV-1 RT K103N): > 26 µM; Ki (HIV-1 RT K103N/Y181C): > 26 µM
Nc1nc2c(ncn2COC(CO)CO)c(=O)[nH]1 [Ganciclovir, reference compound]	21	23	132 µM	
Cc1ccc(OCCn2ccc(=O)n(Cc3cccc(C)c3)c2=O)cc1 [Compound 16, 3-(3-Methylbenzyl)-1-[2-(4-methylphenoxy)ethyl]uracil]				SI, selectivity index, ratio CC50/IC50 (HIV-1 (IIIB) wild type): ⩾11
O=c1ccn(C/C=C/c2ccccc2)c(=O)n1Cc1cc(F)cc(F)c1 [Compound 31, 1-Cinnamyl-3-(3,5-difluorobenzyl)uracil]	1.38	1.13	51 µM	
Nc1ccn(C[C@@H](CO)OCP(=O)(O)O)c(=O)n1.O.O [Cidofovir, reference compound]	64	63	63 µM	
Cc1ccc(OCCn2ccc(=O)n(Cc3ccccc3C)c2=O)cc1 [Compound 15, 3-(2-Methylbenzyl)-1-[2-(4-methylphenoxy)ethyl]uracil]				Ki [3]: > 100 µM
Cc1ccccc1OCCn1ccc(=O)n(Cc2ccccc2)c1=O [Compound 5, 3-Benzyl-1-[2-(2-methylphenoxy)ethyl]uracil]				Ki [3]: > 100 µM
O=c1ccn(C/C=C/c2ccccc2)c(=O)n1Cc1cc(Cl)cc(Cl)c1 [Compound 32, 1-Cinnamyl-3-(3,5-dichlorobenzyl)uracil]	11	9	≥ 100 µM	Ki (HIV-1 RT K103N/Y181C): > 100 µM
Cc1ccc(OCCn2ccc(=O)n(Cc3c(C)cc(C)cc3C)c2=O)cc1 [Compound 20, 1-[2-(4-Methylphenoxy)ethyl]-3-(2,4,6-trimethylbenzyl)-uracil]				Ki [3]: > 100 µM
O=c1ccn(C/C=C/c2ccccc2)c(=O)n1Cc1cc(Br)cc(Br)c1 [Compound 33, 1-Cinnamyl-3-(3,5-dibromobenzyl)uracil]				Ki (HIV-1 RT K103N/Y181C): > 100 µM
